Source: PubChem BioAssay (NCI)
Where “and” joins values, the source holds several entries; their conditions need not be identical. Identical values can stand only once.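 1) Cells in 96-well plates. 2) Compound, 48 h, 5 concentrations. 3) Linear interpolation between surrounding doses. 4) Unreached endpoint = highest concentration. The concentration for 50% growth inhibition is given as GI50. TGI: concentration producing complete growth inhibition.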

What was measured:
Assay in all cases: inhibition of tumour cell growth, NCI panel, 48 h
MOLT-4 leukemia = tested on: MOLT-4 leukemia
KM12 colon = tested on: KM12 colon
UACC-62 melanoma = tested on: UACC-62 melanoma
SR leukemia = tested on: SR leukemia
MALME-3M melanoma = tested on: MALME-3M melanoma
SNB-75 CNS = tested on: SNB-75 CNS
RXF 393 renal = tested on: RXF 393 renal
MDA-N = tested on: MDA-N
SK-OV-3 ovarian = tested on: SK-OV-3 ovarian
OVCAR-8 ovarian = tested on: OVCAR-8 ovarian
HOP-92 NSCLC = tested on: HOP-92 NSCLC
IGROV1 ovarian = tested on: IGROV1 ovarian
A498 renal = tested on: A498 renal

Compound | TGI (MOLT-4 leukemia) | TGI (KM12 colon) [µM] | TGI (UACC-62 melanoma) [µM] | TGI (SR leukemia) [µM] | TGI (MALME-3M melanoma) [µM] | TGI (SNB-75 CNS) | TGI (RXF 393 renal) [µM] | TGI (MDA-N) [µM] | TGI (SK-OV-3 ovarian) [µM] | TGI (OVCAR-8 ovarian) [µM] | TGI (HOP-92 NSCLC) | TGI (IGROV1 ovarian) [µM] | TGI (A498 renal) [µM] | GI50 (MOLT-4 leukemia) | GI50 (KM12 colon) [µM] | GI50 (A498 renal) | GI50 (UACC-62 melanoma) | GI50 (SNB-75 CNS) [µM] | GI50 (SK-OV-3 ovarian) | GI50 (IGROV1 ovarian)
CCOC(=O)C1(F)S(=O)(=O)OCCOS1(=O)=O | > 100 µM | > 100 | > 100 | > 100 | > 100 | > 100 µM | > 100 | > 100 | > 100 | > 100 |  |  |  |  |  |  |  |  |  | 
N#Cc1c2c(c(N)oc1=O)C(c1ccccc1)CC(=O)N2 (configuration not stated) | > 100 µM | > 100 | > 100 |  | > 100 | > 100 µM | > 100 | > 100 | > 100 | > 100 | > 100 µM | > 100 |  |  |  |  |  |  |  | 
CC1CN=C(N(Cc2ccccc2)C(=O)Nc2ccc(Cl)c(Cl)c2)S1 (configuration not stated) | > 10 µM | > 100 |  | > 100 | > 100 | > 100 µM |  | > 100 | > 100 | > 100 | 54.5 µM | > 100 | > 100 |  |  |  |  |  |  | 
C/C=C/C#CC#C/C=C/C=C/C(O)CCO (configuration not stated) | > 23.1 µM | > 23.1 | > 23.1 | > 23.1 | > 23.1 | > 23.1 µM | > 23.1 |  | > 23.1 | > 23.1 | > 23.1 µM | > 23.1 |  |  |  |  |  |  |  | 
[N-]=[N+]=NI1OC(=O)c2ccccc21 | > 100 µM | > 100 | > 100 | > 100 |  | > 100 µM | > 100 |  | > 100 | > 100 | > 100 µM | > 100 | > 100 |  |  |  |  |  |  | 
CC(C)(C)C1=CC(C)(n2[nH]c(=O)n(-c3ccccc3)c2=O)C=C(C(C)(C)C)C1=O |  | > 100 | > 100 |  | > 100 | > 100 µM |  | > 100 | > 100 | > 100 | > 100 µM |  | > 100 |  |  |  |  |  |  | 
O=C(CCC1C(=O)NC(=S)NC1=O)c1ccc2ccccc2c1 | > 100 µM | > 100 | > 100 | > 100 | > 100 | > 100 µM | > 100 |  | > 100 | > 100 | > 100 µM | > 100 | > 100 |  |  |  |  |  |  | 
COc1ccc(OC)c(CNc2ccc(C(=O)O)cc2)c1 | > 100 µM | > 100 | > 100 | > 100 | > 100 | > 100 µM |  | > 100 | > 100 | > 100 | > 100 µM | > 100 | > 100 |  |  |  |  |  |  | 
COC(=O)[C@@]1(C(C)CC(=O)O)CCCCC1=O (some centres not stated) | > 100 µM | > 100 | > 100 | > 100 | > 100 | > 100 µM | > 100 |  | > 100 | > 100 | > 100 µM | > 100 | > 100 |  |  |  |  |  |  | 
CCc1c(C)c(C#N)c(=S)n(C2OC(COC(C)=O)C(OC(C)=O)C(OC(C)=O)C2OC(C)=O)c1-c1ccccc1 (configuration not stated) | > 31.6 µM | > 31.6 |  | > 31.6 | > 31.6 |  |  | > 31.6 |  | > 31.6 | > 31.6 µM | > 31.6 | > 31.6 |  |  |  |  |  |  | 
O=[N+]([O-])c1ccc(-c2nc3ccc(Cl)cc3[nH]2)cc1 | > 100 µM |  | > 100 | > 100 | > 100 | > 100 µM |  | > 100 | > 100 | > 100 | > 100 µM | > 100 |  |  |  |  |  |  |  | 
COC(=O)c1ccc2c(c1)S/C(=C/c1ccc3ccc4cccc5ccc1c3c45)S2 | > 100 µM | 57.3 | 61 |  | > 100 | 46 µM | > 100 | > 100 | > 100 | > 100 | > 100 µM | > 100 | > 100 |  |  |  |  |  |  | 
[O-]c1c2cc(-[n+]3c(-c4ccccc4)cc(-c4ccccc4)cc3-c3ccccc3)cc1COCCOCCOCCOCCOC2 | > 100 µM | 50 | 44.2 | 65.7 | 98.3 | > 100 µM |  |  | > 100 | > 100 | 73.9 µM |  |  |  |  |  |  |  |  | 
COc1ccc(OC)c(N(CN2C(=O)CCC2C(=O)O)C(C)=O)c1 (configuration not stated) | > 100 µM | > 100 | > 100 | > 100 | > 100 | > 100 µM |  | > 100 | > 100 | > 100 | > 100 µM | > 100 | > 100 |  |  |  |  |  |  | 
COc1cc2c(c(O)c1OC)C(=O)[C@@H]1CCC(=O)N1C2 | > 100 µM | > 100 | > 100 | > 100 | > 100 | > 100 µM |  | > 100 | > 100 | > 100 | > 100 µM | > 100 | > 100 |  |  |  |  |  |  | 
O=[N+]([O-])c1ccc(OC2CC3C4C=CC3C2C4)c([N+](=O)[O-])c1 (configuration not stated) | > 100 µM and 25.7 µM | > 100 | > 100 |  | > 100 | 69.7 µM and > 31.6 µM | > 100 |  | > 100 | > 100 | > 100 µM and 29.9 µM | > 100 | > 100 | > 100 µM and 14.1 µM | > 100 | 96.5 µM and > 31.6 µM | 84.4 µM and > 31.6 µM | 34.5 | 68.5 µM and > 31.6 µM | 91.5 µM and > 31.6 µM
COC(=O)C(CCSC)NC(=O)CNC(=O)CSc1nnc(COc2ccc(Cl)cc2)n1-c1ccccc1 (configuration not stated) | > 100 µM | 44.6 | 30.3 |  | 32.7 | 36.3 µM | 35.9 | 32.7 | 34 |  | 32 µM | 30.2 | 95.7 |  |  |  |  |  |  | 
COc1ccc2c(c1)c1c(n2CCN(C)C)-c2ccccc2CC1 | 35.8 µM | 28 | 28 |  | 35.5 | 26.6 µM |  | 30.5 | 34.4 | 31.1 | 31 µM | 27 |  |  |  |  |  |  |  | 
O=[N+]([O-])c1cccc2nc3ccccc3c(NCCCNc3c4ccccc4nc4cccc([N+](=O)[O-])c34)c12 | 0.0972 µM | 0.073 | 0.245 |  | 0.329 | 0.277 µM | < 0.01 |  | 1.59 | 0.131 | < 0.01 µM | 0.967 |  |  |  |  |  |  |  | 
CCN(CC)c1ccc2c(c1)Oc1ccc(N(CC)CC)cc1C21Oc2ccccc2-c2c1c1ccccc1n2CC (configuration not stated) | > 100 µM |  | > 100 | > 100 | 9.27 | > 100 µM | > 100 |  | > 100 | > 100 | 2.12 µM |  | > 100 |  |  |  |  |  |  | 
